# Test results published in publication PMC7413254 (Nature Communications, 2020).
# Experiments:
# Format in all cases: cell-based
# PfCRT^Dd2 [1] = molecular target: T1, PfCRT^Dd2 (Plasmodium falciparum, UniProt Q9N623, A220S/I356T/K76T/M74I/N326S/N75E/Q271E/R371I); assay: [3H]CQ uptake into Xenopus oocytes, cis-inhibition by unlabelled solute; settings: PfCRTDd2 oocytes, background [3H]CQ accumulation subtracted, normalised to oocyte type control
# Procedure, shortened: (§1)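 PfCRT-expressing and control oocytes: ND96 pH 5.5 → 1.5 h at 27.5 °C → ice-cold ND96 wash → 10% SDS lysis → scintillation count.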
# PfCRT^Ecu1110 [2] = molecular target: T2, PfCRT^Ecu1110 (Plasmodium falciparum, UniProt Q9N623, A220S/I356L/K76T/N326D); assay: as above; settings: for PfCRT-mediated [3H]CQ transport, cis-inhibition (% PfCRTEcu1110 control): PfCRTEcu1110 oocytes, background [3H]CQ accumulation subtracted, normalised to oocyte type control; for [3H]CQ transport (% PfCRTEcu1110 control), cis-inhibition, PfCRTEcu1110: PfCRT-mediated component (background subtracted), sheet title says normalised to PfCRTDd2 control, mean ± SEM, SEM
# Procedure, shortened: as §1
# PfCRT^3D7 = PfCRT^3D7 (Plasmodium falciparum, UniProt Q8IBZ9); assay: cell-based; settings: PfCRT3D7 oocytes, normalised to oocyte type control
# Procedure, shortened: (§2)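 Transport measured in Xenopus oocytes expressing the transporters, 1.5 h at 27.5 °C in ND96 pH 5.5 unless noted. For trans-stimulation, VF-6 injected in 25 nL ND96 at pH 5.0–7.0 or Na^+-free (choline) buffer; intracellular levels based on ~400 nL oocyte volume. Ten oocytes per treatment, ≥4 experiments.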
# PfCRT^Dd2 [3] = molecular target: T1, PfCRT^Dd2; assay: cell-based; settings: for PfCRT-mediated [3H]CQ transport, trans-stimulation (% PfCRTDd2 control): PfCRTDd2 oocytes, normalised to oocyte type control; for [3H]CQ transport (% PfCRTDd2 control), trans-stimulation, PfCRTDd2: PfCRT-mediated component (background subtracted), mean ± SEM, SEM
# Procedure, shortened: as §2
# PfCRT^Ecu1110 [4] = molecular target: T2, PfCRT^Ecu1110; assay: cell-based; settings: for PfCRT-mediated [3H]CQ transport, trans-stimulation (% PfCRTEcu1110 control): PfCRTEcu1110 oocytes, normalised to oocyte type control; for [3H]CQ transport (% PfCRTDd2 control), trans-stimulation, PfCRTEcu1110: PfCRT-mediated component (background subtracted), sheet title says normalised to PfCRTDd2 control, mean ± SEM, SEM
# Procedure, shortened: as §2
# [5] = [test solute]i = 5 mM (intracellular)
# [6] = [test solute]i = 45 mM (intracellular; 30 mM for some solutes due to solubility)
# [7] = [test solute]i = 5 mM (injected)
# [8] = [test solute]i = 45 mM (30 mM for some solutes due to solubility)
# T1 sequence (Q9N623 whole entry A220S/I356T/K76T/M74I/N326S/N75E/Q271E/R371I): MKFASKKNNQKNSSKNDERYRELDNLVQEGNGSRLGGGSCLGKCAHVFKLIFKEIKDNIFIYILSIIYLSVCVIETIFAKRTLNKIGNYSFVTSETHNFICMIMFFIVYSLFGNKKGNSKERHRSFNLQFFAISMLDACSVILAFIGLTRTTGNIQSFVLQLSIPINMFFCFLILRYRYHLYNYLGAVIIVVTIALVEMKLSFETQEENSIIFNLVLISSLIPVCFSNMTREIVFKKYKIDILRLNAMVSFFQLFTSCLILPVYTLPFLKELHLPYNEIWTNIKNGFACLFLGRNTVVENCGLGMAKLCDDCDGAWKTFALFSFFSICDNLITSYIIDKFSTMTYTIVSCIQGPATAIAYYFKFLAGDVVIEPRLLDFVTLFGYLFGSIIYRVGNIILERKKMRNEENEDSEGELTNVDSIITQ
# PfCRT^3D7, sequence (Q8IBZ9 59-398): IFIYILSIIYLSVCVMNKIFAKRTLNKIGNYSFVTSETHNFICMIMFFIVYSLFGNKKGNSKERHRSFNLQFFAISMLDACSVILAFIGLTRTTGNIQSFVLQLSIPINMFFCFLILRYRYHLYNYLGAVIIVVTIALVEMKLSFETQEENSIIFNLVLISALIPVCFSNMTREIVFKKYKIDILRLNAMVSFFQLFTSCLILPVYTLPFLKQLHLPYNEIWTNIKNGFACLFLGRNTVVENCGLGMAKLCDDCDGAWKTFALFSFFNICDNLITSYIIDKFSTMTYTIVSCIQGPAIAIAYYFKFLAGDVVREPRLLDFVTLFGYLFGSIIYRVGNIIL
# T2 sequence (Q9N623 whole entry A220S/I356L/K76T/N326D): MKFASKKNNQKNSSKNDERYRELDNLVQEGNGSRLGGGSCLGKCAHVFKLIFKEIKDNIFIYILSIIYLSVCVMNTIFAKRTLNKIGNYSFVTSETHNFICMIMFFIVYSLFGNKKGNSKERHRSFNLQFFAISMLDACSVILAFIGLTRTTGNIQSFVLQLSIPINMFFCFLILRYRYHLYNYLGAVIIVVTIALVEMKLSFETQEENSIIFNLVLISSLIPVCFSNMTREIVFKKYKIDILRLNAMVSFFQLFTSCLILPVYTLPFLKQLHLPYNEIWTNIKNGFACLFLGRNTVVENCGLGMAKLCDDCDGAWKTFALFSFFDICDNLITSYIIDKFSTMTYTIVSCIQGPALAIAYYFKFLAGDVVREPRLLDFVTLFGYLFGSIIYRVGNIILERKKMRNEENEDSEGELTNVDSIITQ
Substance,"PfCRT-mediated [3H]CQ transport, cis-inhibition (% PfCRTDd2 control) (PfCRT^Dd2 [1]; [test solute] = 0.5 mM)","PfCRT-mediated [3H]CQ transport, cis-inhibition (% PfCRTDd2 control) (PfCRT^Dd2 [1]; [test solute] = 1 mM)","PfCRT-mediated [3H]CQ transport, cis-inhibition (% PfCRTDd2 control) (PfCRT^Dd2 [1]; [test solute] = 2 mM)","PfCRT-mediated [3H]CQ transport, cis-inhibition (% PfCRTEcu1110 control) (PfCRT^Ecu1110 [2]; [test solute] = 0.5 mM)","PfCRT-mediated [3H]CQ transport, cis-inhibition (% PfCRTEcu1110 control) (PfCRT^Ecu1110 [2]; [test solute] = 1 mM)","PfCRT-mediated [3H]CQ transport, cis-inhibition (% PfCRTEcu1110 control) (PfCRT^Ecu1110 [2]; [test solute] = 2 mM)","[3H]CQ transport (% PfCRTEcu1110 control), cis-inhibition, PfCRTEcu1110 (PfCRT^Ecu1110 [2]; [test solute] = 1 mM) [% PfCRTEcu1110 control]","[3H]CQ transport (% PfCRTEcu1110 control), cis-inhibition, PfCRTEcu1110 (PfCRT^Ecu1110 [2]; [test solute] = 2 mM) [% PfCRTEcu1110 control]","PfCRT-mediated [3H]CQ transport, trans-stimulation (% PfCRT3D7 control) (PfCRT^3D7; [5])","PfCRT-mediated [3H]CQ transport, trans-stimulation (% PfCRT3D7 control) (PfCRT^3D7; [6])","PfCRT-mediated [3H]CQ transport, trans-stimulation (% PfCRTDd2 control) (PfCRT^Dd2 [3]; [5])","PfCRT-mediated [3H]CQ transport, trans-stimulation (% PfCRTDd2 control) (PfCRT^Dd2 [3]; [6])","[3H]CQ transport (% PfCRTDd2 control), trans-stimulation, PfCRTDd2 (PfCRT^Dd2 [3]; [7]) [% PfCRTDd2 control]","[3H]CQ transport (% PfCRTDd2 control), trans-stimulation, PfCRTDd2 (PfCRT^Dd2 [3]; [8]) [% PfCRTDd2 control]","PfCRT-mediated [3H]CQ transport, trans-stimulation (% PfCRTEcu1110 control) (PfCRT^Ecu1110 [4]; [5])","PfCRT-mediated [3H]CQ transport, trans-stimulation (% PfCRTEcu1110 control) (PfCRT^Ecu1110 [4]; [6])","[3H]CQ transport (% PfCRTDd2 control), trans-stimulation, PfCRTEcu1110 (PfCRT^Ecu1110 [4]; [7]) [% PfCRTEcu1110 control]","[3H]CQ transport (% PfCRTDd2 control), trans-stimulation, PfCRTEcu1110 (PfCRT^Ecu1110 [4]; [8]) [% PfCRTEcu1110 control]","[3H]CQ transport (% PfCRTEcu1110 control), cis-inhibition, PfCRTEcu1110 (PfCRT^Ecu1110 [2]; [test solute] = 0.5 mM) [% PfCRTEcu1110 control]"
VDEVGG [VG-6],55 ± 1.8,44 ± 2.7,38 ± 1.3,61 ± 3.5,51 ± 2.6,39 ± 1.4,16 ± 0.1,12 ± 0.02,140 ± 4.4,190 ± 3.6,102 ± 4.7,112 ± 0.9,102 ± 4.7,112 ± 0.9,128 ± 4.2,139 ± 4.6,39 ± 1.5,42 ± 2.6,–
VDPVNFK [VK-7],17 ± 0.3,9 ± 0.1,3.2 ± 0.1,40 ± 2.5,27 ± 4.1,22 ± 2.4,9.0 ± 0.02,7.0 ± 0.04,128 ± 3.2,179 ± 5.3,100 ± 4.2,98 ± 2.2,100 ± 4.2,98 ± 2.2,132 ± 3.5,138 ± 4.1,40 ± 2.1,42 ± 2.4,13 ± 0.6
VHLT [VT-4],51 ± 2.0,39 ± 2.8,16 ± 0.4,56 ± 4.1,39 ± 4.1,27 ± 1.4,–,9.0 ± 0.2,97 ± 3.2,95 ± 4.7,97 ± 4.6,98 ± 3.2,97 ± 4.6,98 ± 3.2,99 ± 3.2,97 ± 3.6,30 ± 1.3,29 ± 1.5,18 ± 0.3
VHLTPEEK [VK-8],69 ± 3.1,63 ± 5.2,25 ± 0.3,64 ± 2.7,49 ± 3.1,41 ± 2.3,–,–,132 ± 3.2,166 ± 4.2,100 ± 3.4,98 ± 2.3,–,–,98 ± 2.9,100 ± 4.2,–,–,–
